From patent US20250353839A1, “POLYMORPH OF BENZO[C]CHROMAN COMPOUND, PREPARATION METHOD THEREFOR AND USE THEREOF” (Reistone Biopharma Company Limited, priority 2022, published 2025)

Experiments:
[1] = Stability (influence factor) test of free base crystal form E, HPLC and XRPD; assay type: physicochemical; conditions: for related substances (impurities) by HPLC versus initial: different days
Method: (§1) Test conditions for the instruments used in experiments of the present disclosure: • 1. X-ray Powder Diffraction, XRPD • Instrument type: Malver Panalytical Aeris X-ray powder diffractometer • Ray: monochromatic Cu-Kα ray (λ=1.54188) • Scanning mode: θ/2θ, Scanning range (2θ range): 3.5-50° • Voltage: 40 kV, Electric current: 15 mA • 2. Differential Scanning calorimetry, DSC • Instrument type: TA DSC250 • Purge gas: Nitrogen; Nitrogen purge rate: 50 mL/min • Heating rate: 10° C./min • Temperature range: 25° C.-300° C. • 3. Thermogravimetric Analysis, TGA • Instrument type: TA TGA550 • Purge gas: Nitrogen; Nitrogen purge rate: 20 ml/min • Heating rate: 10° C./min • Temperature range: 30° C.-350° C. 4. Dynamic vapor sorption (DVS) • Using SMS Intrinsic PLUS, the detection is performed at 25° C., with humidity change of 50%-0%-90% with a step size of 10%, in which the criteria for judging is that the mass change dM/dT for each gradient is less than 0.002%, TMAX is 360 min, and two cycles are performed. • 5. High performance liquid chromatography (HPLC) described in the stability test of the crystal forms of the present disclosure is determined on Agilent 1260 Infinity II.
In the content detection method by the high performance liquid chromatography described in the present disclosure, HPLC conditions are as follows: chromatographic column, Agilent Eclipse Plus C18 4.6 mm*150 mm, 3.5 μm; mobile phase, A-10 mmol/L solution of sodium dihydrogen phosphate (pH 8.0), and B-ACN; flow rate, 1.0 ml/min; wavelength, 210 nm.
In the related substances detection method by the high performance liquid chromatography described in Example 8 of the present disclosure, HPLC conditions are as follows: chromatographic column, Agilent Eclipse Plus C18 4.6 mm*150 mm, 3.5 μm; mobile phase, A-10 mmol/L solution of ammonium acetate, and B-ACN; flow rate, 1.0 ml/min; wavelength, 210 nm.
It is determined whether temperature and humidity have an influence on the stability of free base crystal form E of the compound of formula I.
The free base crystal form E was placed in a stabilizing chamber […] and subjected to influence factor tests using a series of temperature and humidity combinations. After being placed for different days under light and various temperature and humidity conditions, the samples were taken out. The related substances (impurities) were detected by high performance liquid chromatography.
The samples taken out on the last day under light and various temperature and humidity conditions were subjected to XRPD detection, showing that the free base crystal form E had no change and had good stability.

[2] = Dynamic vapor sorption (DVS) hygroscopicity, with XRPD before and after; assay type: physicochemical; conditions: for weight gain by hygroscopicity: DVS; for crystal form before and after DVS detection (XRPD): XRPD redetermined after DVS
Method: as §1

[3] = accelerated experimental conditions (80% RH)
[4] = normal storage conditions (25° C., 60% RH)

Compound	weight gain by hygroscopicity [2, 3]	crystal form before and after DVS detection (XRPD) [2]	weight gain by hygroscopicity ([2]; extreme conditions (90% RH))	weight gain by hygroscopicity [2, 4]	further results
N#Cc1ccc2c(c1)COc1cc(C[C@@H](C#N)NC(=O)[C@@H]3CNCCCO3)c(F)cc1-2 [free base crystal form E]	–	–	–	–	Content (%) of the compound of formula I ([1]; 0 day): 97.45%; Content (%) of the compound of formula I ([1]; 0.5 ICH (light)): 96.07%; Content (%) of the compound of formula I ([1]; 1 ICH (light)): 94.52%; Content (%) of the compound of formula I ([1]; 25° C. RH 92%-1 week): 97.29%; Content (%) of the compound of formula I ([1]; 25° C. RH 92%-2 weeks): 97.5%; Content (%) of the compound of formula I ([1]; 40° C. RH 75%-1 week): 97.36%; Content (%) of the compound of formula I ([1]; 40° C. RH 75%-2 weeks): 97.51%; Content (%) of the compound of formula I ([1]; 60° C.-1 week): 97.25%; Content (%) of the compound of formula I ([1]; 60° C.-2 weeks): 97.55%; related substances (impurities) by HPLC versus initial ([1]; light conditions): impurities increased; crystal form after stability test (XRPD) ([1]; samples of the last day under light and various temperature and humidity conditions): had no change; related substances (impurities) by HPLC versus initial ([1]; various temperature and humidity conditions): no significant increase or only a slight increase
N#Cc1ccc2c(c1)COc1cc(C[C@@H](C#N)NC(=O)[C@@H]3CNCCCO3)c(F)cc1-2 [crystal form A]	approximately 5.39%	did not change	–	–	–
N#Cc1ccc2c(c1)COc1cc(C[C@@H](C#N)NC(=O)[C@@H]3CNCCCO3)c(F)cc1-2 [crystal form D]	approximately 0.76%	did not change	approximately 0.84%	approximately 0.64%	–
N#Cc1ccc2c(c1)COc1cc(C[C@@H](C#N)NC(=O)[C@@H]3CNCCCO3)c(F)cc1-2 [crystal form B]	approximately 1.60%	did not change	approximately 3.87%	approximately 0.93%	–
N#Cc1ccc2c(c1)COc1cc(C[C@@H](C#N)NC(=O)[C@@H]3CNCCCO3)c(F)cc1-2 [crystal form C]	approximately 0.89%	did not change	approximately 1.16%	approximately 0.65%	–
